Reference: patent publication US8067599B2 (Hoffman-La Roche Inc., priority 2006, dated 2011)

Columns and labels:
[1] = molecular target: T1, mouse full-length Src protein (Mus musculus, UniProt P05480); test: IC50 determination for inhibitors of Src kinase (IMAP fluorescence polarization); assay type: biochemical; conditions: 24 uM ATP, 37° C., 60 minutes; read-out: IC50 Src kinase inhibition
T1 construct: mouse full-length Src protein
Method: Src assay was done using mouse full-length Src protein, fluorescein labeled peptide substrate (with a sequence of KVEKIGEGTYGVVYK) and quantified by Molecular Devices' IMAP fluorescence polarization technology. Compounds were tested in serially diluted concentrations in 384 well plates. Kinase reaction was performed in KAB Buffer (10 mM HEPES, pH 7, 50 mM NaCl, 5 mM MgCl2, 1 mM DTT, 0.1 mM NaVO4, 0.02% BSA), in the presence of 24 uM ATP, incubated at 37° C. for 60 minutes. Reaction was stopped by IMAP bead mix (at 1:400 dilution). After incubation at room temperature for 2 hours, the reaction product was analyzed on LJL Acquest (excitation 485 nm and Emission 530 nm).
(§1) FP reading (in mP) was used to calculate reaction rate. The assay was semi-automated by Tomtec Quadra workstation.

[2] = molecular target: T2, fusion protein corresponding to mouse Abl (27-end) (Mus musculus, UniProt P00520); test: IC50 determination for inhibitors of Abl kinase (IMAP fluorescence polarization); assay type: biochemical; conditions: 22.8 uM ATP, 37° C., 60 minutes; read-out: IC50 Abl kinase inhibition
T2 construct: fusion protein corresponding to mouse Abl (27-end)
Method: Abl assay was done using fusion protein corresponding to mouse Abl (27-end), fluorescein labeled peptide substrate (with a sequence of EAIYAAPFAKKK) and quantified by Molecular Devices' IMAP fluorescence polarization technology. Compounds were tested in serially diluted concentrations in 384 well plates. Kinase reaction was performed in KAB Buffer (10 mM HEPES, pH 7, 50 mM NaCl, 5 mM MgCl2, 1 mM DTT, 0.1 mM NaVO4, 0.02% BSA), in the presence of 22.8 uM ATP, incubated at 37° C. for 60 minutes. Reaction was stopped by IMAP bead mix (at 1:400 diluted). After incubation at room temperature for 3 hours, the reaction product was analyzed on LJL Acquest (excitation 485 nm and Emission 530 nm).
FP reading (in mP) was used to calculate reaction rate. The assay was semi automated by Tomtec Quadra workstation.

[3] = molecular target: human recombinant PDGFR beta (Homo sapiens, UniProt P09619); test: IC50 determination for inhibitors of PDGFR kinase (IMAP fluorescence polarization); assay type: biochemical; conditions: 48 uM ATP, room temperature, 60 minutes, read-out: IC50 PDGFR kinase inhibition
Method: PDGFR assay was carried out with human recombinant PDGFR beta, fluorescein labeled peptide substrate (with a peptide sequence of ALTSNQEYLDLSMPL) and test compounds (in serial dilution) using 384-well plates. Kinase reaction was performed in MOPS buffer (20 mM MOPS pH 7.1, 5 mM Sodium Acetate, 6.25 mM MgCl2, 0.5 mM EDTA, 1 mM DTT, 0.04 mM NaVO4, 0.02% BSA), in the presence of 48 uM ATP, incubated at room temperature for 60 minutes. Reaction was stopped by IMAP Bead Binding System (Molecular Devices). After incubation at room temperature for 2 hours, the reaction product was analyzed on LJL Acquest.
as §1

[4] = test system: HCT 116 cells; test: CellTiter-Glo assay in HCT 116 cells (antiproliferative activity); assay type: cell-based; conditions: Homo sapiens, HCT-116, 120 h, cell viability after 5 days
Method: The CellTiter-Glo™ Luminescent Cell Viability Assay (Promega) is a homogeneous method of determining the number of viable cells in culture based on quantitation of the ATP present, which signals the presence of metabolically active cells.
HCT 116 cells (human colon carcinoma, ATCC-No. CCl-247) were cultivated in RPMI 1640 medium with GlutaMAX™ 1 (Invitrogen, Cat-No. 61870-010), 5% Fetal Calf Serum (FCS, Sigma Cat-No. F4135 (FBS)); 100 Units/ml penicillin/100 μg/ml streptomycin (=Pen/Strep from Invitrogen Cat. No. 15140). For the assay the cells were seeded in 384 well plates, 1000 cells per well, in the same medium. The next day the test compounds were added in various concentrations ranging from 30 μM to 0.0015 μM (10 concentrations, 1:3 diluted). After 5 days the CellTiter-Glo™ assay was done according to the instructions of the manufacturer (CellTiter-Glo™ Luminescent Cell Viability Assay, from Promega). In brief: the cell-plate was equilibrated to room temperature for approximately 30 minutes and than the CellTiter-Glo™ reagent was added. The contents were carefully mixed for 15 minutes to induce cell lysis. After 45 minutes the luminescent signal was measured in Victor 2, (scanning multiwell spectrophotometer, Wallac).
• Medium: RPMI 1640 with GlutaMAX™ 1 (Invitrogen, Cat-No. 61870), 5% FCS (Sigma Cat.-No. F4135), Pen/Strep (Invitrogen, Cat No. 15140). • HCT116 (ATCC-No. CCl-247): 1000 cells in 60 μl per well of 384 well plate (Greiner 781098, μClear-plate white) • After seeding incubate plates 24 h at 37° C., 5% CO2 2nd. Day: Induction (Treatment with Compounds, 10 Concentrations):
In order to achieve a final concentration of 30 μM as highest concentration 3.5 μl of 10 mM compound stock solution were added directly to 163 μl media. Then step e) of the dilution procedure described below, was followed.

T2 sequence (P00520 27-1123 limits assumed): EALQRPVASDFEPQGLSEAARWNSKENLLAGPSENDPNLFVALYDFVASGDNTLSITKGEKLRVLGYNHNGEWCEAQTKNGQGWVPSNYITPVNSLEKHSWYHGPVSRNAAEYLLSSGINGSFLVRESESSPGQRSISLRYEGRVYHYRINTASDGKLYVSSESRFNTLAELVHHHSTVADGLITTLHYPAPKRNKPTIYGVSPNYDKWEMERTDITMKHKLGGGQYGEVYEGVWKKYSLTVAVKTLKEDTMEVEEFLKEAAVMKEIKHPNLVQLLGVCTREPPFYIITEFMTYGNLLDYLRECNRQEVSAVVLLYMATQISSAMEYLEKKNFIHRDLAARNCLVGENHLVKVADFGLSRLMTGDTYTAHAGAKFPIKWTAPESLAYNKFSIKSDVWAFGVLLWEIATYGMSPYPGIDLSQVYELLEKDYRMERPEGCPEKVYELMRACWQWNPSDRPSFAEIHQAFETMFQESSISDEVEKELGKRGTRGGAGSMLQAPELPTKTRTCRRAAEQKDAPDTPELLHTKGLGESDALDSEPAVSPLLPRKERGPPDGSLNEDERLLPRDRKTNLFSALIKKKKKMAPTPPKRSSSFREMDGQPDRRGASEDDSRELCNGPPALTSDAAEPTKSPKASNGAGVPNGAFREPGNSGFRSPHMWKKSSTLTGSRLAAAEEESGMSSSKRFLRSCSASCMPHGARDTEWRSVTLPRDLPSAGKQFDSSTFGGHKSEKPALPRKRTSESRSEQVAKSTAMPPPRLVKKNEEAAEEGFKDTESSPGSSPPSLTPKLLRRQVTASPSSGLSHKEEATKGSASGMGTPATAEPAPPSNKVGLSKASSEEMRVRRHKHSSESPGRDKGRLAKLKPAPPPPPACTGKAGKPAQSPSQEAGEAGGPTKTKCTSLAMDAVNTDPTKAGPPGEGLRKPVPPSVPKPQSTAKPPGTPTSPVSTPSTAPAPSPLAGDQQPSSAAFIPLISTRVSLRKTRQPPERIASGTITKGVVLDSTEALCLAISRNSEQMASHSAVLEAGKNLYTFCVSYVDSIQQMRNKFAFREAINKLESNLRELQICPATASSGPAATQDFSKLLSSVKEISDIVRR
T1 sequence (P05480 whole entry): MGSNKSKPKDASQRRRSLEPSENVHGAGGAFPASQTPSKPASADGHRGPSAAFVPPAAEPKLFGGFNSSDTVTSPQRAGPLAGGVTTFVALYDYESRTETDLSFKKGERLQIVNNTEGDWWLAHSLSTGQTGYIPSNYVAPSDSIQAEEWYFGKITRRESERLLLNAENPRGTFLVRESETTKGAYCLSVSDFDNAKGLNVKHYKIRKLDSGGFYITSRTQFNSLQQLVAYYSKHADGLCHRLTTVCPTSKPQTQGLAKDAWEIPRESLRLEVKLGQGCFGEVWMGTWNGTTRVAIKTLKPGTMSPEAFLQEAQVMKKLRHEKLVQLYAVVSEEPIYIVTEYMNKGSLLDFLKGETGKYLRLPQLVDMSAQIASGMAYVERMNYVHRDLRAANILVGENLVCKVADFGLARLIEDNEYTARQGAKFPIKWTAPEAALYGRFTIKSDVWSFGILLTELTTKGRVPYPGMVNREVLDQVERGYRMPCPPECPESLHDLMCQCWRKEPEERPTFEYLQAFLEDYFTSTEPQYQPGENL
Chain of human recombinant PDGFR beta (P09619 33-1106): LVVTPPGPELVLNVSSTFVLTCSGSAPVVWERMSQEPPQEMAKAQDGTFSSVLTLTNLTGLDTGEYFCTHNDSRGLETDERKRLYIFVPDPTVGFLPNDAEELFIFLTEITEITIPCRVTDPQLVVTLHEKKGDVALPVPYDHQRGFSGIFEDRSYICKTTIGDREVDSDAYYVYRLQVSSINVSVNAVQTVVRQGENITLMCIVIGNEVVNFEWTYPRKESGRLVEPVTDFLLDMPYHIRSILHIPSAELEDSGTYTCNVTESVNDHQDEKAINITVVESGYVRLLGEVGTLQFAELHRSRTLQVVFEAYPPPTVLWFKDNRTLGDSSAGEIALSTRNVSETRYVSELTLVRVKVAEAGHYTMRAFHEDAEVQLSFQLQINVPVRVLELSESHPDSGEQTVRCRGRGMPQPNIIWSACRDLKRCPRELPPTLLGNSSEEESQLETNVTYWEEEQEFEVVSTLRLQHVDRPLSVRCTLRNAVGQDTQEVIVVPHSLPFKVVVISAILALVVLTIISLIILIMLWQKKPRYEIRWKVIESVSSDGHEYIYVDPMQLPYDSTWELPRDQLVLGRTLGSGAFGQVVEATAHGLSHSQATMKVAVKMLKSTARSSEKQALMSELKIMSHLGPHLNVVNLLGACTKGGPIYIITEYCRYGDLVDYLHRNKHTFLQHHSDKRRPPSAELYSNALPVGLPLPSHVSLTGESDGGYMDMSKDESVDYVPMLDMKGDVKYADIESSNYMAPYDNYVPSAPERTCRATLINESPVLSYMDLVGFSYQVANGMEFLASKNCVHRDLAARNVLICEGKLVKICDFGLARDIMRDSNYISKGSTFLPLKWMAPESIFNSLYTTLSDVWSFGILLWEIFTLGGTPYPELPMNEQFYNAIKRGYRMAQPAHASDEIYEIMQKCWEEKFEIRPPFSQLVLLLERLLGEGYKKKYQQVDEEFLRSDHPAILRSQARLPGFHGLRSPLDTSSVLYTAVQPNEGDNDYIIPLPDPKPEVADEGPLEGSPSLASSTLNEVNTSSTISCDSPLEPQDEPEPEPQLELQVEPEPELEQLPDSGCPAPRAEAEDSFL

Question: Which results are given for `O=C(Nc1ccc(Cl)c(C(=O)Nc2cnc3[nH]ccc3c2)c1)c1ccc(-c2ccccc2)cc1` [Example 2-2, Biphenyl-4-carboxylic acid [4-chloro-3-(1H-pyrrolo[2,3-b]pyridin-5-ylcarbamoyl)-phenyl]-amide]?
Answer: IC50 [1]: 5 to 1000 nM; IC50 [2]: 63 nM; IC50 [3]: 10 to 1000 nM; IC50 [4]: 100 to 10000 nM
